Measured values: patent US8791132B2, “Compounds and methods for treatment of hypertension” (Medivation Technologies, Inc., priority 2011, dated 2014)
Like-named read-outs stand apart in the source and are kept apart here.

Experiments:
[1] = biological target: T1, rat adrenergic α1B receptor (Rattus norvegicus, UniProt P15823); assay: Radioligand binding, adrenergic α1B ([3H]Prazosin)
T1 construct: rat adrenergic α1B receptor obtained from Wistar Rat liver; from tissue; host or cells: Wistar rat liver
T1 sequence (P15823 1-515): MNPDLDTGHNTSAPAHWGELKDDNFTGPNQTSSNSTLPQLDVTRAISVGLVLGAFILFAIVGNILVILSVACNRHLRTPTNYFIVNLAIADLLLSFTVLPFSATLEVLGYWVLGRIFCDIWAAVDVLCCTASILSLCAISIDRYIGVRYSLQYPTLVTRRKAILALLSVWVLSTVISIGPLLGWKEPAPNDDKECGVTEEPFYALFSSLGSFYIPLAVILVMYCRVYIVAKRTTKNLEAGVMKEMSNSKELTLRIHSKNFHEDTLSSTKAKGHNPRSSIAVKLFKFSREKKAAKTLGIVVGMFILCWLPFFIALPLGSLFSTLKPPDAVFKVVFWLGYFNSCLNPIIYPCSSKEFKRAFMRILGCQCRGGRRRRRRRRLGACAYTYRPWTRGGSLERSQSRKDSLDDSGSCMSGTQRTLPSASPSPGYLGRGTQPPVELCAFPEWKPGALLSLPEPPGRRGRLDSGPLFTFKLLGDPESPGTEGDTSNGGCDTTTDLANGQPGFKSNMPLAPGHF
Experimental: To evaluate in radioligand binding assays the activity of compounds of the invention, rat adrenergic α1B receptor obtained from Wistar Rat liver (Garcia-S'ainz, J. et al, Biochem. Biophys. Res. Commun. 186:760, 1992; Michel, A. et al, Br. J. Pharmacol. 98:883, 1989) in a modified Tris-HCl buffer (50 mM Tris-HCl buffer, pH 7.4, 0.5 mM EDTA) was used. Compounds of the invention were incubated with 0.25 nM [^3H]Prazosin for 60 min at 25° C. Non-specific binding was estimated in the presence of 10 μM phentolamine. Receptor proteins were filtered and washed, the filters were then counted to determine [^3H]Prazosin specifically bound. […] Compounds of the invention were tested in this biochemical assay and percent inhibition of specific binding was determined. Biochemical assay results are presented as the percent inhibition of specific binding in Table B1.

[2] = biological target: T2, human recombinant adrenergic α2B receptor (Homo sapiens, UniProt P18089); assay: Radioligand binding, adrenergic α2B ([3H]Rauwolscine); conditions: for Percentage inhibition of ligand binding, Adrenergic α2B / Percentage inhibition of ligand binding, Adrenergic α2B (0.03 μM) / inhibition at 0.03 µM: [3H]Rauwolscine; for Percentage inhibition of ligand binding, Adrenergic α2B / Percentage inhibition of ligand binding, Adrenergic α2B (0.03 μM): 0.03 µM
T2 construct: expressed in transfected cells; host or cells: CHO-K1
T2 sequence (P18089 1-450): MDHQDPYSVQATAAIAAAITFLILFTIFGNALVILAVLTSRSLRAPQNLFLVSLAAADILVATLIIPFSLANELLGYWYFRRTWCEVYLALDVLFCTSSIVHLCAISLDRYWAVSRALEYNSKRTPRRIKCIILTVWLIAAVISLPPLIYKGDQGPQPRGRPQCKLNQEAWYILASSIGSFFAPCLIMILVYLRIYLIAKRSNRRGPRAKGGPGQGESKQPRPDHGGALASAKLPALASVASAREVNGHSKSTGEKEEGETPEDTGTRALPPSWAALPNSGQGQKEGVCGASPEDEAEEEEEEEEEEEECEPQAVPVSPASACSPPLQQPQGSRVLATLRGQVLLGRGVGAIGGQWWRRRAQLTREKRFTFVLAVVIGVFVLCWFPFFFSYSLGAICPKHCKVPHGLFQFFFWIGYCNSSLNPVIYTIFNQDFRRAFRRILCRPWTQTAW
Experimental: To evaluate in radioligand binding assays the activity of compounds of the invention, human recombinant adrenergic α2B receptor expressed in Chinese hamster ovary (CHO) K1 cells (Uhlen, S. et al, Eur. J. Pharmacol. 343(1):93, 1998) in a modified Tris-HCl buffer (50 mM Tris-HCl, pH 7.4, 12.5 mM MgCl2, 1 mM EDTA, 0.2% BSA) was used. Compounds of the invention were incubated with 2.5 nM [3H]Rauwolscine for 60 min at 25° C. Non-specific binding was estimated in the presence of 10 μM Prazosin. Receptor proteins were filtered and washed, the filters were then counted to determine [3H]Rauwolscine specifically bound. […] Compounds of the invention were tested in this biochemical assay and percent inhibition of specific binding was determined. Biochemical assay results are presented as the percent inhibition of specific binding in Table B1.

[3] = biological target: T3, human recombinant adrenergic α2A receptor (Homo sapiens, UniProt P08913); assay: Radioligand binding, adrenergic α2A ([3H]MK-912)
T3 construct: expressed in transfected cells; host or cells: insect Sf9 cells
T3 sequence (P08913 1-465): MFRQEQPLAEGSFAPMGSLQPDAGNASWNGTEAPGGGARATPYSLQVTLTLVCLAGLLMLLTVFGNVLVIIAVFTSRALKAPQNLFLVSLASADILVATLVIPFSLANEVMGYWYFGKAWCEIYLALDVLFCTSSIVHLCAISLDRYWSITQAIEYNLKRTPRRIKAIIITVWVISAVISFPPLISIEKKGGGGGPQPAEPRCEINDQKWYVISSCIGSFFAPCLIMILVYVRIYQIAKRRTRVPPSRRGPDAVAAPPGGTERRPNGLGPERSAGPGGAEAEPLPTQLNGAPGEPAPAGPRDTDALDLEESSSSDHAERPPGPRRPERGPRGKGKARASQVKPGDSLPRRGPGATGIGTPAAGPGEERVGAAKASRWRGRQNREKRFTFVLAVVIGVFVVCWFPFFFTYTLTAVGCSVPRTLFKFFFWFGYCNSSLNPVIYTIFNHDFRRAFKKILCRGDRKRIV
Experimental: To evaluate in radioligand binding assays the activity of compounds of the invention, human recombinant adrenergic α2A receptor expressed in insect Sf9 cells (Uhlen, S. et al, J. Pharmacol. Exp. Ther. 271:1558, 1994) in a modified Tris-HCl buffer (50 mM Tris-HCl, pH 7.4, 12.5 mM MgCl2, 2 mM EDTA) was used. Compounds of invention were incubated with 1 nM [^3H]MK-912 for 60 min at 25° C. MK912 is (2S-trans)-1,3,4,5′,6,6′,7,12b-octahydro-1′,3′-dimethyl-spiro[2H-benzofuro[2,3-a]quinolizine-2,4′(1′H)-pyrimidin]-2′(3′H)-one hydrochloride. Non-specific binding was estimated in the presence of 10 μM WB-4101 (2-(2,6-Dimethoxyphenoxyethyl)aminomethyl-1,4-benzodioxane hydrochloride). Receptor proteins were filtered and washed, the filters were then counted to determine [^3H]MK-912 specifically bound. […] Compounds of the invention were tested in this biochemical assay and percent inhibition of specific binding was determined. Biochemical assay results are presented as the percent inhibition of specific binding in Table B1.

[4] = compound at 0.1 μM, [3H]Prazosin, repeat datapoints each shown, 0.1 µM
[5] = compound at 0.03 μM, repeat assays, each datapoint shown
[6] = compound at 0.1 μM, [3H]Prazosin, repeat assays, each datapoint shown, 0.1 µM
[7] = compound at 0.1 μM, [3H]MK-912, repeat assays, each datapoint shown, 0.1 µM
[8] = compound at 0.03 μM, repeat datapoints each shown
[9] = read-out: Percentage inhibition of ligand binding, Adrenergic α1B (0.1 μM), compound at 0.1 μM, [3H]Prazosin, repeat datapoints each shown
[10] = read-out: Percentage inhibition of ligand binding, Adrenergic α2B (0.03 μM), compound at 0.03 μM, repeat datapoints each shown
[11] = 0.1 μM compound, read-out: Percentage inhibition of ligand binding, Adrenergic α1B
[12] = compound at 0.1 μM, [3H]MK-912, repeat datapoints each shown, 0.1 µM
[13] = read-out: Percentage inhibition of ligand binding, Adrenergic α2A (0.1 μM), compound at 0.1 μM, [3H]MK-912, repeat datapoints each shown
[14] = compound at 0.1 μM, [3H]Prazosin, repeat assays, each datapoint shown, read-out: Percentage inhibition of ligand binding, Adrenergic α1B

## Cc1ccc2c(c1)c1c(n2CC(N=[N+]=[N-])c2ccncc2)CCN(C)C1 (racemic) [V-1a, 5-(2-azido-2-(pyridin-4-yl)ethyl)-2,3,4,5-tetrahydro-2,8-dimethyl-1H-pyrido[4,3-b]indole]
[1]; [4]
  Percentage inhibition of ligand binding, Adrenergic α1B (0.1 μM): 20%

## Cc1ccc2c(c1)c1c(n2CC(OC(=O)C(N)C(C)C)c2ccncc2)CCN(C)C1 (single isomer, unassigned) [25a]
[2]; [5]
  Percentage inhibition of ligand binding, Adrenergic α2B: 54%
[1]; [6]
  Percentage inhibition of ligand binding, Adrenergic α1B: 4%

## Cc1ccc2c(c1)c1c(n2CC(OC(=O)C(N)C(C)C)c2ccncc2)CCN(C)C1 (single isomer, unassigned) [25b]
[2]; [5]
  Percentage inhibition of ligand binding, Adrenergic α2B: 75%
[1]; [6]
  Percentage inhibition of ligand binding, Adrenergic α1B: 12%

## Cc1ccc2c(c1)c1c(n2CC(O)c2ccc(C(=O)N(C)C)cc2)CCN(C)C1 (single isomer, unassigned) [52a]
[1]; [6]
  Percentage inhibition of ligand binding, Adrenergic α1B: 9%
[3]; [7]
  Percentage inhibition of ligand binding, Adrenergic α2A: 5%

## Cc1ccc2c(c1)c1c(n2CC(O)c2ccc(C(=O)N(C)C)cc2)CCN(C)C1 (single isomer, unassigned) [52b]
[1]; [6]
  Percentage inhibition of ligand binding, Adrenergic α1B: 73%
[3]; [7]
  Percentage inhibition of ligand binding, Adrenergic α2A: 29%

## Cc1ccc(CCn2c3c(c4cc(Cl)cnc42)C2CCCN2CC3)cn1 (single isomer, unassigned) [137a]
[2]; [8]
  Percentage inhibition of ligand binding, Adrenergic α2B (0.03 μM): 104%
[1]; [4]
  Percentage inhibition of ligand binding, Adrenergic α1B (0.1 μM): 94%

## Cc1ccc2c(c1)c1c(n2CC(O)c2ccc(C#N)cc2)CCN(C)C1 (single isomer, unassigned) [142a]
[2]; [8]
  Percentage inhibition of ligand binding, Adrenergic α2B (0.03 μM): 71%
[1]; [9]
  inhibition at 0.1 µM: 68%

## CN1CCc2c(c3cc(Cl)ccc3n2CC(C)(O)c2ccc(C(F)(F)F)nc2)C1 (single isomer, unassigned) [143a]
[1]; [4]
  Percentage inhibition of ligand binding, Adrenergic α1B (0.1 μM): 43%

## Cc1ccc2c(c1)c1c(n2CC(c2ccncc2)N2CCCC2)CCN(C)C1 (single isomer, unassigned) [152b]
[1]; [4]
  Percentage inhibition of ligand binding, Adrenergic α1B (0.1 μM): 7%

## Cc1cnc2c(c1)c1c(n2CC(N)c2ccc(C#N)cc2)CCN(C)C1 (single isomer, unassigned) [159a]
[2]; [10]
  inhibition at 0.03 µM: 37%
[1]; [4]
  Percentage inhibition of ligand binding, Adrenergic α1B (0.1 μM): −2%

## CN1CCc2c(n(CC(O)c3ccc(F)c(F)c3)c3ccc(Cl)cc23)CC1 (single isomer, unassigned) [339a]
[1]; [11]
  inhibition at 0.1 µM: 13%
[3]; 0.1 μM compound, 0.1 µM
  Percentage inhibition of ligand binding, Adrenergic α2A: 37%

## Cc1ccc2c(c1)c1c(n2CC(O)c2cn[nH]c2)CCN(C)C1 (single isomer, unassigned) [II-106a]
[1]; [9]
  inhibition at 0.1 µM: 25%

## Cc1ccc2c(c1)c1c(n2CC(O)c2cn[nH]c2)CCN(C)C1 (single isomer, unassigned) [II-106b]
[1]; [4]
  Percentage inhibition of ligand binding, Adrenergic α1B (0.1 μM): 31%
[3]; [12]
  Percentage inhibition of ligand binding, Adrenergic α2A (0.1 μM): 8%

## Cc1ccc2c(c1)c1c(n2CC(C)(O)c2cccnc2)CCN(C)C1C (single isomer, unassigned) [II-152d]
[1]; [4]
  Percentage inhibition of ligand binding, Adrenergic α1B (0.1 μM): 5%
[3]; [12]
  Percentage inhibition of ligand binding, Adrenergic α2A (0.1 μM): 8%

## Cc1ccc2c(c1)c1c(n2CC(O)c2ccc(F)cc2)CCN(C)C1 (stereo not shown) [30a]
[1]; [6]
  Percentage inhibition of ligand binding, Adrenergic α1B: 57%

## Cc1ccc2c(c1)c1c(n2CC(O)c2ccncc2)CCN2CCCC12 (stereo not shown) [129a]
[1]; [9]
  inhibition at 0.1 µM: 73%
[3]; [13]
  inhibition at 0.1 µM: 46%

## Cc1ccc2c(c1)c1c(n2CC(O)c2ccncc2)CCN2CCCC12 (stereo not shown) [129b]
[1]; [4]
  Percentage inhibition of ligand binding, Adrenergic α1B (0.1 μM): 69%

## Cc1ccc2c(c1)c1c(n2CC(c2ccncc2)N(C)C)CCN(C)C1 (stereo not shown) [150b]
[1]; [9]
  inhibition at 0.1 µM: 7%
[3]; [13]
  inhibition at 0.1 µM: 5%

## Cc1ccc2c(c1)c1c(n2CC(C)(O)c2ccc(C)nc2)CN(C)CC1 (stereo not shown) [196b]
[2]; [10]
  inhibition at 0.03 µM: -2%
[1]; [9]
  inhibition at 0.1 µM: 37%

## Cc1ccc2c(c1)c1c(n2C(C)C(O)c2ccncc2)CCN(C)C1 (stereo not shown) [II-98a]
[1]; 0.1 μM compound
  Percentage inhibition of ligand binding, Adrenergic α1B: 33%
[3]; 0.1 μM compound, read-out: Percentage inhibition of ligand binding, Adrenergic α2A
  inhibition at 0.1 µM: 12%

## Cc1ccc2c(c1)c1c(n2CC(C)(O)c2cccnc2)CC[N+](C)([O-])C1 (stereo not shown) [II-105, 1-(2,8-dimethyl-2-oxy-1,2,3,4-tetrahydro-pyrido[4,3-b]indol-5-yl)-2-pyridin-3-yl-propan-2-ol]
[2]; 0.1 μM compound, read-out: Percentage inhibition of ligand binding, Adrenergic α2B
  inhibition at 0.1 µM: 27%
[2]; read-out: Ki α2B
  Ki: 152 nM
[1]; [11]
  inhibition at 0.1 µM: 5%

## Cc1ccc2c(c1)c1c(n2CC(C)(O)c2ccncc2)CCN(C)CC1 (stereo not shown) [II-134b]
[1]; compound at 0.1 μM, [3H]Prazosin, repeat datapoints each shown
  Percentage inhibition of ligand binding, Adrenergic α1B (0.1 μM): 65%
[3]; compound at 0.1 μM, [3H]MK-912, repeat datapoints each shown
  Percentage inhibition of ligand binding, Adrenergic α2A (0.1 μM): 6%

## CN1CCc2c(c3cc(Cl)ccc3n2CC(O)c2cccnc2)C1 (stereo not shown) [compound 7]
[2]; compound at 0.03 μM, repeat assays, each datapoint shown, read-out: Percentage inhibition of ligand binding, Adrenergic α2B
  inhibition at 0.03 µM: 59%
[1]; [14]
  inhibition at 0.1 µM: 35%

## Cc1ccc2c(c1)c1c(n2CC(O)c2ccncc2)C(C)N2CCC1C2 (stereo not shown) [compound 38]
[1]; [14]
  inhibition at 0.1 µM: 20%

## CN1CCc2c(n(CC(O)c3ccncc3)c3ccc(Cl)cc23)C1 (stereo not shown) [compound 41]
[1]; [14]
  inhibition at 0.1 µM: 57%
